Experimental data: US12022830B2, “Formulations of metal and ascorbic acid complexes, their obtaining and use” (INTERMAG SP. Z O.O., priority 2017, dated 2024)

Experiments:
[1] = Study of solution stability for a given complex; format: physicochemical
Alternaria brassicae = settings: foliar, 32.6 g TiO(Asc)2.2H2O/ha, three dates
Experimental: (§1) The experiments on the effect of the formulations according to the invention (liquid preparation obtained after dissolving the solid blend, according to the invention) were performed on winter oilseed rape, winter wheat and corn plants at the Institute of Plant Protection in Poznan at the Experimental Station in Winna Góra.

Botrytis cinerea = settings: foliar, 32.6 g TiO(Asc)2.2H2O/ha, three dates
Experimental: as §1

cabbage seed weevil = settings: foliar, 32.6 g TiO(Asc)2.2H2O/ha, three dates
Experimental: as §1

corn of Wilga type = settings: foliar, 32.6 g TiO(Asc)2.2H2O/ha, BBCH 12-14, 18-20, 35-39
Experimental: as §1

wheat of Figura type = settings: foliar, 32.6 g TiO(Asc)2.2H2O/ha, BBCH 22-29, 30-51, 51-73
Experimental: as §1

[2] = tested on: winter oilseed rape of Artoga type; settings: foliar, 32.6 g TiO(Asc)2.2H2O/ha, BBCH 21-36, 50-61, 69-73
Experimental: as §1

corn borer moth = experiment: Infestation of corn by corn borer moth; format: in vivo; settings: foliar, 32.6 g TiO(Asc)2.2H2O/ha, three dates
cereal leaf beetle = experiment: Infestation of wheat by cereal leaf beetle; format: in vivo; settings: foliar, 32.6 g TiO(Asc)2.2H2O/ha, three dates
fragility of stem base = experiment: Infestation of wheat through the fragility of stem base; format: in vivo; settings: treated plants; control 48% infested plants
[3] = tested on: fusarium foot and root rot; experiment: Fusarium foot and root rot on wheat; format: in vivo; settings: sprayed plants; control 12% of infestations
Cladosporium herbarum = experiment: Infestation of wheat spikes by Cladosporium herbarum; format: in vivo; settings: sprayed plants, control 20%
Text: (§2) In the case of diseases attacking spikes, on the control combination, infestation by Cladosporium herbarum at 20%, by Septoria nodorum at 10% and by Gibberella avenacea at 10% were found. On sprayed plants, infestations were 1%, 1% and 0% respectively.

Septoria nodorum = experiment: Infestation of wheat spikes by Septoria nodorum; format: in vivo; settings: sprayed plants, control 10%
Text: as §2

Gibberella avenacea = experiment: Infestation of wheat spikes by Gibberella avenacea; format: in vivo; settings: sprayed plants, control 10%
Text: as §2

butterhead lettuce = experiment: Cultivation of butterhead lettuce, uptake of nutrients; format: in vivo; settings: aboveground parts, dry mass, 20th day, two sprays, 0.0085% Ti
Experimental: TiO(OH)(C6H7O6).1H2O was used in the amount of 9.7 g/ha (0.005%, 0.0085% Ti), (TiO(C6H7O6)2.2H2O) was used in the amount of 16.3 g/ha (0.008%, 0.0085% Ti), TiO(C6H7O6)3.3H2O was used in the amount of 22.9 g/ha (0.011%, 0.0085% Ti), TiO(C6H7O6)4.5H2O was used in the amount of 30.9 g/ha (0.015%, 0.0085% Ti) in a single spray after previously dissolving them in 200 l of water. The spraying was performed with a manual sprayer at the smallest possible drop setting. Plants were sprayed evenly from a distance of about 30 cm.
Substrate: a mixture of peat deacidified with chalk (producer: Hollas) and rinsed quartz sand with a granulation of 4-8 mm. Volume ratio of the mixture: 1:4. Agrofoska (Intermag) fertiliser in the amount of 3 kg/m^3 was added to the substrate. Pots with a volume of about 3 l were used.
Spraying was performed twice with the preparation with the same concentrations of working liquid: spray 1 on the 7th day of the experiment; spray 2 on the 14th day of the experiment.
The experiment was randomised and there were 10 repetitions for each combination (1 repetition=one pot)
(§3) The content of nutrients was tested in the aboveground parts of plants, based on dry mass content.

wheat = experiment: Cultivation of wheat, chlorophyll content and uptake of nutrients; format: in vivo; settings: for Content of chlorophyll in leaves: 20th day of the experiment; for Fe content / K content / P content / Ti content / Zn content: aboveground parts, dry mass, 20th day
Experimental: Experiments for the use of titanium complex in the solid formulation TiO(Asc)2.2H2O on wheat were performed analogously to Example 14.
as §3

[4] = tested on: Iceberg cabbage lettuce (Lactuca sativa) of Rubette type; experiment: Titanyl ascorbates in cultivation of iceberg lettuce, head mass, chlorophyll, flavonoids; format: in vivo; settings: foliar twice, 0.00085% Ti, total 3.4 g Ti/ha
Experimental: Iceberg cabbage lettuce (Lactuca sativa) of Rubette type was cultivated in a plastic tunnel in pots with a capacity of 3 l filled with a peat substrate. […] In two applications, the total titanium dose per hectare was 3.4 g Ti/ha. The experiment was performed in a random block system, combinations were drawn in 4 blocks. […] Flavonoids are antioxidant compounds, they protect plant cell structures against reactive oxygen species formed under the influence of abiotic and biotic stress factors. These compounds are the first to be synthesised when unfavourable conditions of the growing environment occur.

rape = experiment: Cultivation of rape, vegetative mass and uptake of nutrients; format: in vivo; settings: for Number of plant leaves / Total wet mass of the aboveground part / Wet mass of leaves / Wet mass of stem: 20th day of the experiment; for Fe content / Mg content / Mn content / P content / Si content / Ti content / Zn content: aboveground parts, dry mass, 20th day
Experimental: Experiments for the use of titanium complex for rape were performed analogously to Example 14.
as §3

[5] = 5% solution obtained by dissolving in water

O.O.O=C1OC(C(O)CO)C([O-])=C1O.O=C1OC(C(O)CO)C([O-])=C1O.[O]=[Ti+2] (stereo not drawn) [TiO(C6H7O6)2•2H2O, titanyl ascorbate]
stable during long storage [1, 5]: up to 12 months
temperature at which the solution remains stable [1, 5]: −5 to +40 °C
behaviour after freezing and thawing ([1]; 5% solution, overcooled below −7° C., then raised above 0° C.): retains its original physicochemical properties
stability of the solution among the complexes ([1]; complexes in the form of solutions): most stable
Infestation of siliques by Alternaria brassicae smaller than the control combination (Alternaria brassicae): 52%
Infestation of siliques by Botrytis cinerea smaller than the control combination (Botrytis cinerea): 77%
Siliques damaged by cabbage seed weevil fewer than in the control combination (cabbage seed weevil): 80%
Corn yield increased compared to the control combination (corn of Wilga type): 13 % (m/m)
Wheat yield increased compared to the control combination (wheat of Figura type): 16 % (m/m)
Rape yield increased compared to the control combination [2]: 15%
decrease in the infestation by corn borer moth in comparison to untreated plants (corn borer moth): 43%
decrease in the infestation by cereal leaf beetle in comparison to untreated plants (cereal leaf beetle): 74%
infestation through the fragility of stem base (fragility of stem base): 4%
symptoms of fusarium foot and root rot [3]: not any symptoms
infestation by Cladosporium herbarum (Cladosporium herbarum): 1%
infestation by Septoria nodorum (Septoria nodorum): 1%
infestation by Gibberella avenacea (Gibberella avenacea): 0%
B content (butterhead lettuce): 83.31 mg/kg
Ca content (butterhead lettuce): 17.41 g/kg
Cu content (butterhead lettuce): 7.13 mg/kg
Fe content (butterhead lettuce): 794.44 mg/kg
K content (butterhead lettuce): 7.48 g/kg
Mg content (butterhead lettuce): 6.66 g/kg
Mn content (butterhead lettuce): 687.51 mg/kg
S content (butterhead lettuce): 7.41 g/kg
Ti content (butterhead lettuce): 4.27 mg/kg
Zn content (butterhead lettuce): 154.18 mg/kg
Content of chlorophyll in leaves (wheat): 48.03 SPAD
Fe content (wheat): 85.056 mg/kg
K content (wheat): 55.27 g/kg
P content (wheat): 10.43 g/kg
Ti content (wheat): 1.390 mg/kg
Zn content (wheat): 48.850 mg/kg
Chlorophyll [4]: 27.4 μg/cm^2
Dry mass [4]: 7.23 g
Flavonoids [4]: 0.32 μg/cm^2
Mass of head [4]: 82.8 g

titanyl ascorbate [TiO(C6H7O6)3•3H2O]
B content (butterhead lettuce): 72.35 mg/kg
Ca content (butterhead lettuce): 17.84 g/kg
Cu content (butterhead lettuce): 5.46 mg/kg
Fe content (butterhead lettuce): 842.63 mg/kg
K content (butterhead lettuce): 6.97 g/kg
Mg content (butterhead lettuce): 6.03 g/kg
Mn content (butterhead lettuce): 757.37 mg/kg
Si content (butterhead lettuce): 257.62 mg/kg
Ti content (butterhead lettuce): 2.37 mg/kg
Zn content (butterhead lettuce): 155.38 mg/kg
Number of plant leaves (rape): 7.94
Total wet mass of the aboveground part (rape): 39.61
Wet mass of leaves (rape): 17.74 g
Wet mass of stem (rape): 21.58 g
Fe content (rape): 1739.07 mg/kg
Mg content (rape): 7.86 g/kg
Mn content (rape): 1440.47 mg/kg
P content (rape): 11.43 g/kg
Si content (rape): 159.40 mg/kg
Ti content (rape): 1.07 mg/kg
Zn content (rape): 413.68 mg/kg
Content of chlorophyll in leaves (wheat): 45.60 SPAD
Fe content (wheat): 97.390 mg/kg
K content (wheat): 57.22 g/kg
P content (wheat): 9.47 g/kg
Ti content (wheat): 1.311 mg/kg
Zn content (wheat): 51.410 mg/kg

titanyl ascorbate [TiO(C6H7O6)4•5H2O]
Content of chlorophyll in leaves (wheat): 47.06 SPAD
Fe content (wheat): 100.910 mg/kg
K content (wheat): 53.29 g/kg
P content (wheat): 10.09 g/kg
Ti content (wheat): 1.150 mg/kg
Zn content (wheat): 44.290 mg/kg

O.O=C1OC(C(O)CO)C([O-])=C1O.[OH-].[O]=[Ti+2] (stereo not drawn) [TiO(OH)(C6H7O6)•1H2O, titanyl ascorbate]
Number of plant leaves (rape): 8.28
Total wet mass of the aboveground part (rape): 38.3
Wet mass of leaves (rape): 19.00 g
Wet mass of stem (rape): 21.53 g
Fe content (rape): 1957.19 mg/kg
Mg content (rape): 8.859 g/kg
Mn content (rape): 1350.53 mg/kg
P content (rape): 8.74 g/kg
Si content (rape): 118.21 mg/kg
Ti content (rape): 1.55 mg/kg
Zn content (rape): 362.63 mg/kg
Content of chlorophyll in leaves (wheat): 47.17 SPAD
Fe content (wheat): 96.280 mg/kg
K content (wheat): 57.21 g/kg
P content (wheat): 9.86 g/kg
Ti content (wheat): 1.444 mg/kg
Zn content (wheat): 47.880 mg/kg
